By IC50 is commonly meant the point on the concentration scale where inhibition reaches its midpoint. A low value points to greater potency in that assay.

This is an account of results in paper PMC10374545, “A small molecule inhibitor of PTP1B and PTPN2 enhances T cell anti-tumor immunity” (Nature Communications, 2023).

The target in one experiment is T1, PTP1B (Homo sapiens, UniProt P18031).
T1 construct: PTP1B, residues 1-321; made in house; host or cells: E. coli BL21(DE3)
T1 sequence (P18031 1-321): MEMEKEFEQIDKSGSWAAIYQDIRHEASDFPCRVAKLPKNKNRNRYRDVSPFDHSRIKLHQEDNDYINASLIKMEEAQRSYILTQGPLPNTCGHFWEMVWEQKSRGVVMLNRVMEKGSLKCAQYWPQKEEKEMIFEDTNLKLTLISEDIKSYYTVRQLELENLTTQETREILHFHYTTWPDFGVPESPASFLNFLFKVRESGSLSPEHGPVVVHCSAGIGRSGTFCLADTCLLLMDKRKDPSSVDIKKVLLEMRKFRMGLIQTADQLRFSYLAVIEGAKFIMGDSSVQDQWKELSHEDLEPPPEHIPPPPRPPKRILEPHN
Nature of the experiment: PTP inhibition assay with DiFMUP substrate (IC50). In kind it is biochemical. How it is done:
Cell pellets were stored at −80 °C for subsequent protein purification.
Protein purification of PTPs for enzymatic assays was conducted at 4 °C. Frozen cell pellets were lysed by sonication in 40 ml cold lysis buffer (50 mM Tris-HCl, pH 8.0, 150 mM NaCl, 5 mM imidazole, and 1 mM PMSF) per litre cell pellet. […] The supernatant was incubated with HisPur Ni-NTA resin (Thermo Scientific) for 2 h and then packed onto a column and washed with 50 resin volume of buffer A (50 mM Tris-HCl, pH 8.0, 500 mM NaCl, 5 mM imidazole). The His-tagged proteins were eluted with Buffer B (50 mM Tris-HCl, pH=8.0, 500 mM NaCl, 300 mM imidazole,). […]
(§1) The PTP kinetic assay was modified from previous reported protocols[73],[74]. […] The fluorescence signal was measured using a CLARIOstar Plus Microplate Spectrophotometer (BMG Labtech) using excitation and emission wavelengths of 340 nm and 450 nm, respectively. […]
(§2) To determine the mode of inhibition, the reactions were initiated by the addition of enzyme (final concentration for PTP1B and PTPN2 was 0.05 nM) to the reaction mixtures (0.2 ml) containing various concentrations of DiFMUP with different concentrations of the inhibitor. […] The fluorescence signal was measured using a CLARIOstar Plus Microplate Spectrophotometer (BMG Labtech) using excitation and emission wavelength of 340 nm and 450 nm, respectively. […]

For a further experiment, the target named is T2, PTPN2 (Homo sapiens, UniProt P17706).
T2 construct: PTPN2, residues 1-387; made in house; host or cells: E. coli BL21(DE3)
T2 sequence (P17706 1-387 isoform P17706-2): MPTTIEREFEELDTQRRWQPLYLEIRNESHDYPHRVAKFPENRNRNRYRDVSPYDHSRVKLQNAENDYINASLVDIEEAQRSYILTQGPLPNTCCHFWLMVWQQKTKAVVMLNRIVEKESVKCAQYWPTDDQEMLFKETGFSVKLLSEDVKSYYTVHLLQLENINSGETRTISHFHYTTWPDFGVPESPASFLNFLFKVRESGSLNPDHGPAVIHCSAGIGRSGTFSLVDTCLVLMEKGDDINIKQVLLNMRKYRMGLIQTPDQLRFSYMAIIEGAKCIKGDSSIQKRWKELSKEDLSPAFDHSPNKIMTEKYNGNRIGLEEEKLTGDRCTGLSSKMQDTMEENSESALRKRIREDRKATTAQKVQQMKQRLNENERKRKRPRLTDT
Nature of the experiment: PTP inhibition assay with DiFMUP substrate (IC50). It is filed as biochemical. As to conditions: DiFMUP 10 μM as substrate. How it is done:
E. coli BL21(DE3) (Novagen) was used as an expression host and the induction of protein expression was carried out in LB media with 1 mM IPTG at 18 °C overnight. Cell pellets were stored at −80 °C for subsequent protein purification.
Protein purification of PTPs for enzymatic assays was conducted at 4 °C. Frozen cell pellets were lysed by sonication in 40 ml cold lysis buffer (50 mM Tris-HCl, pH 8.0, 150 mM NaCl, 5 mM imidazole, and 1 mM PMSF) per litre cell pellet. Cell lysates were clarified by centrifugation using a Beckman JA-18 rotor for 15 min at 5308 x g. The supernatant was incubated with HisPur Ni-NTA resin (Thermo Scientific) for 2 h and then packed onto a column and washed with 50 resin volume of buffer A (50 mM Tris-HCl, pH 8.0, 500 mM NaCl, 5 mM imidazole). The His-tagged proteins were eluted with Buffer B (50 mM Tris-HCl, pH=8.0, 500 mM NaCl, 300 mM imidazole,). Pooled His-protein-containing fractions were concentrated, loaded onto a HiLoad 26/600 Superdex 75 column (GE Healthcare Biosciences) and eluted with storage buffer (50 mM Tris-HCl, pH 8.0, 150 mM NaCl, 1 mM DTT, 10% glycerol). […] The protein was aliquoted and stored at −80 °C.
as §1, §2

Take `CC(C)CCN[C@@H]1CCc2cc(O)c(N3CC(=O)NS3(=O)=O)c(F)c2C1` [ABBV-CLS-484]: the IC50 is 1.84 ± 0.09 nM against PTP1B (DiFMUP 10 μM as substrate) and 1.6 ± 0.06 nM against PTPN2. The “IC50 values relative to those of Compound 182” value at PTP1B (PTP1B and PTPN2, same conditions) is “approximately 3 fold”.
